Tests used:
[1] = molecular target: Glycogen synthase kinase-3 (Sus scrofa, UniProt B2LUN4+I6LNT8); assay: Inhibition of pig GSK3alpha/beta
[2] = molecular target: Dual specificity tyrosine-phosphorylation-regulated kinase 1A (Homo sapiens, UniProt Q13627); assay: Inhibition of human recombinant GST-fusion DYRK1A expressed in Escherichia coli
[3] = molecular target: Cyclin-dependent kinase 5/CDK5 activator 1 (Homo sapiens, UniProt Q00535); assay: Inhibition of human recombinant CDK5/P25 by scintillation counting; assay type: protein-complex assay
Cyclin-dependent kinase 5/CDK5 activator 1, sequence (Q00535 whole entry): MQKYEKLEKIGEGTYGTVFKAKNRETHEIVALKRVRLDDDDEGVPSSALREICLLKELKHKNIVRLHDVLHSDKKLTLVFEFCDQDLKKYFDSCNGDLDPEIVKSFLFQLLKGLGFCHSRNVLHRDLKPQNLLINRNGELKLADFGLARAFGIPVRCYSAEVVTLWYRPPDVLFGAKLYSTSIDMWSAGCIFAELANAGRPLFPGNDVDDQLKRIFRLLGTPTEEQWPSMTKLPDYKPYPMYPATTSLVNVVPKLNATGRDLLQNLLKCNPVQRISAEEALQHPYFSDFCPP
Cyclin-dependent kinase 5/CDK5 activator 1, sequence (Q15078 whole entry, further chain): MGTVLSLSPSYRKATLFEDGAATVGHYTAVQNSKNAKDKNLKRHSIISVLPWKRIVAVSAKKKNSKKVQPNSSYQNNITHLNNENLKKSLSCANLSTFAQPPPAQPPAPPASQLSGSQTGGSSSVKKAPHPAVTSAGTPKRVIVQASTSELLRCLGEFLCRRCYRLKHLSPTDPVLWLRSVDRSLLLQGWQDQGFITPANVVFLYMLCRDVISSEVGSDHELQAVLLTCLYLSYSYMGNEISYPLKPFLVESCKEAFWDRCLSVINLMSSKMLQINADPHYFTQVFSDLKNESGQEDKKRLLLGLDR

Row | Structure (SMILES) | IC50 [1] | IC50 [2] | IC50 [3]
1 | Cn1nc(N)c2c(-c3ccccc3)c(C#N)c(N)nc21 | > 10 µM | > 10 µM | > 10 µM
2 | CC(=O)Nc1nc2nn(-c3ccccc3)c(NC(C)=O)c2cc1C#N | > 10 µM | > 10 µM | > 10 µM
3 | CC(=O)Nc1nc2[nH]nc(NC(C)=O)c2cc1C#N | > 10 µM | > 10 µM | > 10 µM
4 | COc1nc(NN)c(C#N)c(-c2ccccc2)c1C#N | > 10 µM | > 10 µM | > 10 µM
5 | N#Cc1c(N2CCOCC2)nc2[nH]nc(N)c2c1-c1ccccc1 | > 10 µM | > 10 µM | > 10 µM
6 | N#Cc1c(N)nc2[nH]nc(N)c2c1-c1ccccc1 | 1.5 µM | 11 µM | 0.41 µM
7 | CC(=O)n1nc(N)c2c(-c3ccccc3)c(C#N)c(N)nc21 | > 10 µM | > 10 µM | > 10 µM
8 | CC(=O)Nc1nn(C)c2nc(N)c(C#N)cc12 | > 10 µM | > 10 µM | > 10 µM
9 | N#Cc1c(Cl)nc2[nH]nc(N)c2c1-c1ccccc1 | > 10 µM | > 10 µM | > 10 µM
10 | N#Cc1cc2c(N)n[nH]c2nc1N | > 10 µM | > 10 µM | > 10 µM
11 | N#Cc1cc2c(N)n(-c3ccccc3)nc2nc1N | > 10 µM | > 10 µM | > 10 µM
12 | Cn1nc(N)c2cc(C#N)c(N)nc21 | > 10 µM | > 10 µM | > 10 µM
13 | COc1nc(NNC(C)=O)c(C#N)c(-c2ccccc2)c1C#N | > 10 µM | > 10 µM | > 10 µM
14 | CC(=O)Nc1nn(C)c2nc(N)c(C#N)c(-c3ccccc3)c12 | > 10 µM | > 10 µM | > 10 µM

Source: ChEMBL document CHEMBL1153477, “Synthesis and biological evaluation of 3,6-diamino-1H-pyrazolo[3,4-b]pyridine derivatives as protein kinase inhibitors” (Bioorg Med Chem Lett, 2009)
